Data as given in patent publication US10487072B2, “Substituted imidazoles as melanocortin receptor agonists” (MITSUBISHI TANABE PHARMA CORPORATION, priority 2015, dated 2019).
pEC50: −log10 of the molar value. Counter-ions that a name gives are not always drawn.

How the values were obtained:
[1] = molecular target: T1, Human MC1R (Homo sapiens, UniProt Q01726); assay: Human MC1R agonistic activity measurement (cAMP assay) using human melanoma cell line HBL; format: cell-based; conditions: HBL cells; for Emax: 0.5 h, Intrinsic Activity, vehicle cAMP = 0%, αMSH at 10^-6 M = 100%, read-out: Human MC1R IA %; for pEC50: intracellular cAMP, 37° C. for 30 minutes
T1 construct: endogenous in cells; host or cells: human melanoma cell line HBL
Protocol: (1) Method for Culturing Cells
Human MC1R agonistic activity measurement was carried out by using human melanoma cell line HBL. Culture of HBL: F-10 Nutrient Mixture comprising 10% FCS and Penicillin-streptomycin was used in the culture.
(2) cAMP Assay and Data Calculation
Each compound solution having each concentration was mixed with a cAMP assay buffer (HBSS (Hank's Balanced Salt Solution) comprising 10 mM HEPES and 0.1% BSA), and dispensed into a 96 well plate. HBL was suspended into a cAMP assay buffer comprising 0.5 mM IBMX so that the concentration became 5×10^4/mL, and the resulting suspension was dispensed into the above 96 well plate, then mixed, and left to stand at 37° C. for 30 minutes, and then the intracellular cAMP concentration was measured by a fluorescence method using Envision (ex. 320 nm, em. 590 nm and 665 nm). Each ratio value (665 nm measurement value/590 nm measurement value×10,000) was calculated from the resulting data, and the quantitative value of each cAMP concentration was calculated by using Prism 5.02, and induction % value (% of each sample when the average concentration value of cAMP of vehicle was set to be 0% and the average concentration value of cAMP of αMSH at 10^−6 M was set to be 100%) was calculated, and EC50 value and Intrinsic Activity (IA) % value were calculated.

[2] = molecular target: human MC4R (Homo sapiens, UniProt P32245); assay: human MC4R agonistic activity; format: cell-based
human MC4R, sequence (P32245 whole entry): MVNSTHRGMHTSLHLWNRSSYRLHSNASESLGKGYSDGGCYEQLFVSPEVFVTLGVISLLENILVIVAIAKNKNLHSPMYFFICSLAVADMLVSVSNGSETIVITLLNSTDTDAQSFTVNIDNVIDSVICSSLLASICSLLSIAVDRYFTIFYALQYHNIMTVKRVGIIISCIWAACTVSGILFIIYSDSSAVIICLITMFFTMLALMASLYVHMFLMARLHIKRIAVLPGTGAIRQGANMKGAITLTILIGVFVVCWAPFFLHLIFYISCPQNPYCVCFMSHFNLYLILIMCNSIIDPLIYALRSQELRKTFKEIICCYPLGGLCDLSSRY

T1 sequence (Q01726 whole entry): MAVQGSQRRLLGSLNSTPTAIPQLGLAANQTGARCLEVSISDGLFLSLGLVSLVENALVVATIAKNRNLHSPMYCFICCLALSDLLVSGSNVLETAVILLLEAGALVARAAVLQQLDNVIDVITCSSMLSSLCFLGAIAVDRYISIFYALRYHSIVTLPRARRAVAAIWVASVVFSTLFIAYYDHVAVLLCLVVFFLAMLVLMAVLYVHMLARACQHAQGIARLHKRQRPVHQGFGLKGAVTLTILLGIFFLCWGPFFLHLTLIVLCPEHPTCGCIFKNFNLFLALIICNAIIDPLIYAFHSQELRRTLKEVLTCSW

Emax [1]	pEC50 [1]	pEC50 [2]	Structure (SMILES)
89%	7.66		COC(C)(C)CCCN1C[C@@H](c2ccc(F)cc2F)[C@](F)(C(=O)Nc2nccn2Cc2ccc(C)cc2N2CCC(C(=O)O)CC2)C1 [Example 13, 1-(2-{[2-({[(3R,4R)-4-(2,4-difluorophenyl)-3-fluoro-1-(4-methoxy-4-methylpentyl)pyrrolidin-3-yl]carbonyl}amino)-1H-imidazol-1-yl]methyl}-5-methylphenyl)piperidine-4-carboxylic acid]
88%	8.17		O=C(O)C1CCN(c2cc(C(F)(F)F)ccc2Cn2ccnc2NC(=O)[C@]2(F)CN(C3CCCC3)C[C@H]2c2ccc(F)cc2F)CC1 [Example 16, 1-[2-{[2-({[(3R,4R)-1-cyclopentyl-4-(2,4-difluorophenyl)-3-fluoropyrrolidin-3-yl]carbonyl}amino)-1H-imidazol-1-yl]methyl}-5-(trifluoromethyl)phenyl]piperidin-4-carboxylic acid]
83%	8.46		COC(C)(C)CCCN1C[C@@H](c2ccc(F)cc2F)[C@](F)(C(=O)Nc2nccn2Cc2ccc(C(F)(F)F)cc2N2CCC(C(=O)O)CC2)C1 [Example 19, 1-[2-{[2-({[(3R,4R)-4-(2,4-difluorophenyl)-3-fluoro-1-(4-methoxy-4-methylpentyl)pyrrolidin-3-yl]carbonyl}amino)-1H-imidazol-1-yl]methyl}-5-(trifluoromethyl)phenyl]piperidine-4-carboxylic acid]
97%	8.12		O=C(O)C1CCN(c2cc(C(F)(F)F)ccc2Cn2ccnc2NC(=O)[C@]2(F)CN(CCCS(=O)(=O)N3CCCC3)C[C@H]2c2ccc(F)cc2F)CC1 [Example 26, 1-[2-({2-[({(3R,4R)-4-(2,4-difluorophenyl)-3-fluoro-1-[3-(pyrrolidin-1-ylsulfonyl)propyl]pyrrolidin-3-yl}carbonyl)amino]-1H-imidazol-1-yl}methyl)-5-(trifluoromethyl)phenyl]piperidine-4-carboxylic acid]
91%	7.60		CN(C)C(=O)CCCN1CC(c2ccc(F)cc2F)C(C(=O)Nc2nccn2Cc2ccc(C(F)(F)F)cc2N2CCC(C(=O)O)CC2)(C(F)(F)F)C1 (stereo not drawn) [Example 28]
	8.55	6.25	Cc1ccc(Cn2ccnc2NC(=O)[C@@H]2CN(CC[C@H]3Cc4ccccc4CN3)C[C@H]2c2ccc(F)cc2F)c(N2CCC(C(=O)O)CC2)c1 [Example 32, 1-(2-{[2-({[(3S,4R)-4-(2,4-difluorophenyl)-1-{2-[(3R)-1,2,3,4-tetrahydroisoquinolin-3-yl]ethyl}pyrrolidin-3-yl]carbonyl}amino)-1H-imidazol-1-yl]methyl}-5-methylphenyl)piperidine-4-carboxylic acid tetrahydrochloride]
108%	8.22		CC(C)(C)N1C[C@@H](c2ccc(F)cc2)[C@](F)(C(=O)Nc2nccn2Cc2ccc(C(F)(F)F)cc2N2CCC(C(=O)O)CC2)C1 [Example 43, 1-[2-{[2-({[(3R,4R)-1-tert-butyl-3-fluoro-4-(4-fluorophenyl)pyrrolidin-3-yl]carbonyl}amino)-1H-imidazol-1-yl]methyl}-5-(trifluoromethyl)phenyl]piperidine-4-carboxylic acid]
96%	8.70		CC(C)c1ccc(Cn2ccnc2NC(=O)[C@]2(F)CN(C(C)(C)C)C[C@H]2c2ccc(F)cc2)c(N2CCC(C(=O)O)CC2)c1 [Example 49, 1-[2-{[2-({[(3R,4R)-1-tert-butyl-3-fluoro-4-(4-fluorophenyl)pyrrolidin-3-yl]carbonyl}amino)-1H-imidazol-1-yl]methyl}-5-(propan-2-yl)phenyl]piperidine-4-carboxylic acid]
118%	8.80		COc1ccc([C@@H]2CN(C(C)(C)C)C[C@@]2(F)C(=O)Nc2nccn2Cc2ccc(C(F)(F)F)cc2N2CCC(C(=O)O)CC2)cc1 [Example 52, 1-[2-{[2-({[(3R,4R)-1-tert-butyl-3-fluoro-4-(4-methoxyphenyl)pyrrolidin-3-yl]carbonyl}amino)-1H-imidazol-1-yl]methyl}-5-(trifluoromethyl)phenyl]piperidine-4-carboxylic acid]
109%	8.55		COc1ccc([C@@H]2CN(C(C)(C)C)C[C@@]2(F)C(=O)Nc2nccn2Cc2ccc(C(C)C)cc2N2CCC(C(=O)O)CC2)cc1 [Example 54, 1-[2-{[2-({[(3R,4R)-1-tert-butyl-3-fluoro-4-(4-methoxyphenyl)pyrrolidin-3-yl]carbonyl}amino)-1H-imidazol-1-yl]methyl}-5-(propan-2-yl)phenyl]piperidine-4-carboxylic acid]
79%	8.64		Cc1ccc(Cn2ccnc2NC(=O)[C@@H]2CN(C3(C)CCN(CCO)CC3)C[C@H]2c2ccc(F)cc2F)c(N2CCOCC2)c1 [Example 64, (3S,4R)-4-(2,4-difluorophenyl)-1-[1-(2-hydroxyethyl)-4-methylpiperidin-4-yl]-N-{1-[4-methyl-2-(morpholin-4-yl)benzyl]-1H-imidazol-2-yl}pyrrolidine-3-carboxamide]
66%	7.70		Cc1ccc(Cn2ccnc2NC(=O)[C@@H]2CN(c3ccnc(C)c3)C[C@H]2c2ccc(F)cc2F)c(N2CCOCC2)c1 [Example 72]
76%	7.17		CC(C)(C)N1C[C@@H](c2ccc(F)cn2)[C@](F)(C(=O)Nc2nccn2Cc2ccc(C(F)(F)F)nc2N2CCOCC2)C1 [Example 80]
98%	7.80		Cc1ccc(Cn2ccnc2NC(=O)[C@@H]2CN(C(C)(C)C)C[C@H]2c2ccc(F)cc2F)c(N2CCC(C(=O)NS(=O)(=O)N(C)C)CC2)c1 [Example 85, 1-(2-{[2-({[(3S,4R)-1-tert-butyl-4-(2,4-difluorophenyl)pyrrolidin-3-yl]carbonyl}amino)-1H-imidazol-1-yl]methyl}-5-methylphenyl)-N-(dimethylsulfamoyl)piperidine-4-carboxamide trihydrochloride]

Structure (SMILES)	Emax [1]	pEC50 [1]	pEC50 [2]
CC(C)(C)N1C[C@@H](C(=O)Nc2nccn2CC2(N3CCOCC3)CCCCC2)[C@H](c2ccc(F)cc2F)C1 [Example 70]	58%	7.08	
